Values quoted from earlier work, collected in patent publication US20060088617A1, “Chocolate composition and method for benefiting the cardiovascular system” (priority 2004, published 2006).

Tested on: blood vessel function
Conditions: after consumption of flavonoid-rich dark chocolate

absorption of epicatechin in the blood: absorbed at high levels in the blood
Structure (SMILES): Oc1cc(O)c2c(c1)O[C@H](c1ccc(O)c(O)c1)[C@H](O)C2 [epicatechin]
